Test results from patent publication US7435736B2, “Substituted 1-piperidin-4-yl-4-azetidin-3-yl-piperazine derivatives and their use as neurokinin antagonists” (Janssen Pharmaceutica, N.V., priority 2002, dated 2008).

Columns and labels:
h-NK1 = h-NK1 (Homo sapiens, UniProt P25103); experiment: Signal transduction (ST), intracellular Ca++ FLIPR, NK1 antagonistic activity; type: cell-based; settings: read-out: pIC50 h-NK1 (converted)
Experimental: (§1) This test evaluates in vitro functional NK1, NK2 and NK3 antagonistic activity. For the measurements of intracellular Ca^++ concentrations the cells were grown on 96-well (black wall/transparent bottom) plates from Costar for 2 days until they reached confluence. The cells were loaded with 2 μM Fluo3 in DMEM containing 0.1% BSA and 2.5 mM probenecid for 1 h at 37° C. They were washed 3× with a Krebs buffer (140 mM NaCl, 1 mM MgCl2×6H2O, 5 mM KCl, 10 mM glucose, 5 mM HEPES; 1.25 mM CaCl2; pH 7.4) containing 2.5 mM probenecid and 0.1% BSA (Ca^++-buffer). The cells were preincubated with a concentration range of antagonists for 20 min at RT and Ca^++-signals after addition of the agonists were measured in a Fluorescence Image Plate Reader (FLIPR from Molecular Devices, Crawley, England). The peak of the Ca^++-transient was considered as the relevant signal and the mean values of corresponding wells were analysed as described below.
(§2) The sigmoidal dose response curves were analysed by computerised curve-fitting, using the GraphPad Program. The EC50-value of a compound is the effective dose showing 50% of maximal effect. For mean curves the response to the agonist with the highest potency was normalised to 100%. For antagonist responses the IC50-value was calculated using non-linear regression. […]

h-NK2 = molecular target: T1, h-NK2 (Homo sapiens, UniProt P21452); experiment: Signal transduction (ST), intracellular Ca++ FLIPR, NK2 antagonistic activity; type: cell-based; settings: read-out: pIC50 h-NK2 (converted)
T1 sequence (P21452 1-398): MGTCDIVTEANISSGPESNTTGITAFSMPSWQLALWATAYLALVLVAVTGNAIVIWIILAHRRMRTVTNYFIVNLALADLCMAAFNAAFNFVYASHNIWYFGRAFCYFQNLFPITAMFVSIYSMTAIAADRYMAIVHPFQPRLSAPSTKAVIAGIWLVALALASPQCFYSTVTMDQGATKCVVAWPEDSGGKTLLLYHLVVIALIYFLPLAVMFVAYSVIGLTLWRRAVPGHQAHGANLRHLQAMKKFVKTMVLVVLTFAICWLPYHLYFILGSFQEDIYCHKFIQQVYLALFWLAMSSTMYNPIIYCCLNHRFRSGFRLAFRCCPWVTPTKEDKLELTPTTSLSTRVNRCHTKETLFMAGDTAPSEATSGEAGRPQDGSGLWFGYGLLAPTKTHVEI
Experimental: as §1, §2

h-NK3 = molecular target: T2, h-NK3 (Homo sapiens, UniProt P29371); experiment: Signal transduction (ST), intracellular Ca++ FLIPR, NK3 antagonistic activity; type: cell-based; settings: read-out: pIC50 h-NK3 (converted)
T2 sequence (P29371 1-465): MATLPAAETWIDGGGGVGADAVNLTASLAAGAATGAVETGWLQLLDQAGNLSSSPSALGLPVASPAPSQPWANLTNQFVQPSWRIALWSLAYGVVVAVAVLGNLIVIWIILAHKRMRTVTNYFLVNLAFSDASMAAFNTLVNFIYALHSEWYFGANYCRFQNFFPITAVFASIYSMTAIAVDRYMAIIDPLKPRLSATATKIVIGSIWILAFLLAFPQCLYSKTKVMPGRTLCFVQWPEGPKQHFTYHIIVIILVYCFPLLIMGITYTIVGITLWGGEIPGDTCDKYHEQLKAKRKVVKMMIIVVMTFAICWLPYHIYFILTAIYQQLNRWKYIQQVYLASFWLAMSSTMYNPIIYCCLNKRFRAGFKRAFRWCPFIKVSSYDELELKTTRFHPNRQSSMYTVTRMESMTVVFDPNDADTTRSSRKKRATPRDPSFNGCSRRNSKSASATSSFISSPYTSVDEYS
Experimental: as §1, §2

cisplatin-induced emesis = settings: acute and delayed phase, animals; cited from earlier work
[1] = test system: chemotherapy- and radiation-induced sickness in cancer patients; settings: cited from earlier work; for reduction of the development of delayed emesis: >24 h; for control of the acute emetic phase: first 24 h, either or not associated with dexamethasone
acute emesis = settings: administered together with dexamethasone and 5-HT3 antagonists; cited from earlier work
major depression = settings: data not conclusive due to high placebo response rate; cited from earlier work
schizophrenic patients = settings: without affecting negative symptoms; cited from earlier work
[2] = test system: NK1 agonist-induced vocalisation response; settings: guinea-pigs; cited from earlier work
dopamine release = settings: frontal cortex vs striatum; cited from earlier work

h-NK1, sequence (P25103 whole entry): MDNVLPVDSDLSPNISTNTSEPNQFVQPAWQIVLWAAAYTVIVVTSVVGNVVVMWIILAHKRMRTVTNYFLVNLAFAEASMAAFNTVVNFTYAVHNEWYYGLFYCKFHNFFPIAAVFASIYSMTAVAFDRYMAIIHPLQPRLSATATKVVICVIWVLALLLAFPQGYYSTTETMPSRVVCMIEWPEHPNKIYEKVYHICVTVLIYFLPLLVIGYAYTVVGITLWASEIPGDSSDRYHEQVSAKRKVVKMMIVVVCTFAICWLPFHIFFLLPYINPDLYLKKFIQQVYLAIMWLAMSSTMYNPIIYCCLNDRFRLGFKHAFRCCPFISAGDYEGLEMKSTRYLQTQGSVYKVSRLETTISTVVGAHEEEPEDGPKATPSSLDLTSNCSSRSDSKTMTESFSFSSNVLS

Structure (SMILES) | IC50 (h-NK1) | IC50 (h-NK2) | IC50 (h-NK3) | also measured
O=C(c1ccccc1)N1CC(N2CCN(C3CCN(C(=O)c4cc(C(F)(F)F)cc(C(F)(F)F)c4)C(Cc4ccccc4)C3)CC2)C1 (stereo not drawn) [Compound 3] | 19.5 nM |  |  | 
O=C(c1cnccn1)N1CC(N2CCN([C@H]3CCN(C(=O)c4cc(C(F)(F)F)cc(C(F)(F)F)c4)[C@H](Cc4ccccc4)C3)CC2)C1 [Compound 20] | 41.7 nM | ≥ 10000 nM | 8130 nM | 
O=C(C1CC1)N1CC(N2CCN([C@H]3CCN(C(=O)c4cc(C(F)(F)F)cc(C(F)(F)F)c4)[C@H](Cc4ccccc4)C3)CC2)C1 [Compound 10] | 63.1 nM |  |  | 
O=C(C1CCOC1)N1CC(N2CCN(C3CCN(C(=O)c4cc(C(F)(F)F)cc(C(F)(F)F)c4)C(Cc4ccccc4)C3)CC2)C1 (stereo not drawn) [Compound 11] | 10.5 nM | ≥ 10000 nM | ≥ 10000 nM | 
COc1ccccc1CN[C@H]1CCCN[C@H]1c1ccccc1 [CP-99,994] |  |  |  | inhibition of cisplatin-induced emesis (cisplatin-induced emesis): inhibit not only the acute but also the delayed phase
Cc1nccn1CC1CCc2c(c3ccccc3n2C)C1=O (stereo not drawn) [ondansetron] |  |  |  | reduction of the development of delayed emesis [1]: poor efficacy; control of the acute emetic phase [1]: effective
CC(C(=O)N1CC(N2CCN([C@H]3CCN(C(=O)c4cc(C(F)(F)F)cc(C(F)(F)F)c4)[C@H](Cc4ccccc4)C3)CC2)C1)c1ccccc1 (stereo partly drawn) [Compound 14] | 22.9 nM | 3980 nM | 631 nM | 
N#Cc1cccc(C(=O)N2CC(N3CCN([C@H]4CCN(C(=O)c5cc(C(F)(F)F)cc(C(F)(F)F)c5)[C@H](Cc5ccccc5)C4)CC3)C2)c1 [Compound 4] | 45.7 nM |  |  | 
Cc1nnsc1C(=O)N1CC(N2CCN([C@H]3CCN(C(=O)c4cc(C(F)(F)F)cc(C(F)(F)F)c4)[C@H](Cc4ccccc4)C3)CC2)C1 [Compound 16] | 7.41 nM | ≥ 10000 nM | 4900 nM | 
O=C(c1ccccc1Cl)N1CC(N2CCN([C@H]3CCN(C(=O)c4cc(C(F)(F)F)cc(C(F)(F)F)c4)[C@H](Cc4ccccc4)C3)CC2)C1 [Compound 18] | 10.5 nM | ≥ 10000 nM | 4370 nM | 
Cc1cc(C(=O)N2CC(N3CCN([C@H]4CCN(C(=O)c5cc(C(F)(F)F)cc(C(F)(F)F)c5)[C@H](Cc5ccccc5)C4)CC3)C2)n(C)n1 [Compound 7] | 72.4 nM |  | 3470 nM | 
CN1C2CCCC1CC(NC(=O)c1nn(C)c3ccccc13)C2 (stereo not drawn) [granisetron] |  |  |  | reduction of the development of delayed emesis [1]: poor efficacy; control of the acute emetic phase [1]: effective
O=C([C@H]1CCOC1)N1CC(N2CCN([C@H]3CCN(C(=O)c4cc(C(F)(F)F)cc(C(F)(F)F)c4)[C@H](Cc4ccccc4)C3)CC2)C1 [Compound 12] | 43.7 nM | ≥ 10000 nM | ≥ 10000 nM | 
C[C@@H](O[C@H]1OCCN(Cc2n[nH]c(=O)[nH]2)[C@H]1c1ccc(F)cc1)c1cc(C(F)(F)F)cc(C(F)(F)F)c1 [aprepitant] |  |  |  | prevention of acute emesis (acute emesis): additional effects; antidepressant effects (major depression): antidepressant effects; inhibition of cisplatin-induced emesis (cisplatin-induced emesis): inhibit not only the acute but also the delayed phase
O=C(c1cc(C(F)(F)F)cc(C(F)(F)F)c1)N1CCC(N2CCN(C3CN(c4cnccn4)C3)CC2)CC1Cc1ccccc1 (stereo not drawn) [Compound 19] | 45.7 nM | ≥ 10000 nM | ≥ 10000 nM | 
O=C(c1ccoc1)N1CC(N2CCN([C@H]3CCN(C(=O)c4cc(C(F)(F)F)cc(C(F)(F)F)c4)[C@H](Cc4ccccc4)C3)CC2)C1 [Compound 9] | 55 nM |  |  | 
O=C(c1cc(C(F)(F)F)cc(C(F)(F)F)c1)N1CCC(N2CCN(C3CN(S(=O)(=O)c4cccs4)C3)CC2)CC1Cc1ccccc1 (stereo not drawn) [Compound 15] | 32.4 nM | 5500 nM | 1230 nM | 
CC(=O)N(C)C1(c2ccccc2)CCN(CCC[C@]2(c3ccc(Cl)c(Cl)c3)CCCN(C(=O)c3ccccc3)C2)CC1 [SR142801] |  |  |  | antipsychotic activity (schizophrenic patients): antipsychotic activity
FC(F)(F)c1cc(CO[C@H]2CCCN[C@H]2c2ccccc2)cc(C(F)(F)F)c1 [L-733,060] |  |  |  | antagonism of NK1 agonist-induced vocalisation response [2]: antagonised
O=C(c1cc(C(F)(F)F)cc(C(F)(F)F)c1)N1CCC(N2CCN(C3CNC3)CC2)CC1Cc1ccccc1 (stereo not drawn) [Compound 2] | 123 nM |  |  | 
COc1ccc(C(C)C)cc1CN[C@H]1C2CCN(CC2)[C@H]1C(c1ccccc1)c1ccccc1 [CJ-11,974, Ezlopitant] |  |  |  | prevention of acute emesis (acute emesis): additional effects
CC(C)(C)OC(=O)NC(C)(C)C(=O)N1CC(N2CCN([C@H]3CCN(C(=O)c4cc(C(F)(F)F)cc(C(F)(F)F)c4)[C@H](Cc4ccccc4)C3)CC2)C1 [Compound 13] | 33.9 nM | ≥ 10000 nM | ≥ 10000 nM | 
O=C(c1cccnc1)N1CC(N2CCN([C@H]3CCN(C(=O)c4cc(C(F)(F)F)cc(C(F)(F)F)c4)[C@H](Cc4ccccc4)C3)CC2)C1 [Compound 6] | 49 nM |  |  | 
O=C(c1ccsc1)N1CC(N2CCN(C3CCN(C(=O)c4cc(C(F)(F)F)cc(C(F)(F)F)c4)C(Cc4ccccc4)C3)CC2)C1 (stereo not drawn) [Compound 8] | 204 nM |  |  | 
CC(C)(C)C(=O)N1CC(N2CCN([C@H]3CCN(C(=O)c4cc(C(F)(F)F)cc(C(F)(F)F)c4)[C@H](Cc4ccccc4)C3)CC2)C1 [Compound 17] | 11 nM | ≥ 10000 nM | 5500 nM | 
O=C(c1ccc(F)c(F)c1)N1CC(N2CCN([C@H]3CCN(C(=O)c4cc(C(F)(F)F)cc(C(F)(F)F)c4)[C@H](Cc4ccccc4)C3)CC2)C1 [Compound 5] | 102 nM |  |  | 
CNCCC(Oc1ccc(C(F)(F)F)cc1)c1ccccc1 (stereo not drawn) [fluoxetine] |  |  |  | antagonism of NK1 agonist-induced vocalisation response [2]: antagonised
CC(C)(C)OC(=O)N1CCC[C@@H]1C(=O)N1CC(N2CCN([C@H]3CCN(C(=O)c4cc(C(F)(F)F)cc(C(F)(F)F)c4)[C@H](Cc4ccccc4)C3)CC2)C1 [Compound 22] | 37.2 nM | 5500 nM | 1820 nM | 
COc1ccc(-n2nnnc2C(F)(F)F)cc1CN[C@H]1CCCN[C@H]1c1ccccc1 [(S)-GR205,171] |  |  |  | dopamine release (dopamine release): enhance dopamine release in the frontal cortex but not in the striatum
CN(C)CCCN1c2ccccc2CCc2ccccc21 [imipramine] |  |  |  | antagonism of NK1 agonist-induced vocalisation response [2]: antagonised
